Values joined by “and” are separate entries in the source; they are usually repeats but may differ in a detail not shown here. Equal values may be shown once. Non-standard residues stand in square brackets, D forms with d. Residues, ends and D or L forms follow the SMILES beside them. No end group written: not given here. Dmt = Cc1cc(O)cc(C)c1C[C@H](N)C(=O)O
Legend:
[1] = test system: Retinal Nerve Fiber Layer (RNFL) and Inner Plexiform Layer (IPL); test: Sequential administration study, OCT thickness of RNFL and IPL after US-TON (SI-TON), Example 4; type: in vivo, mice; conditions: four weeks after treatments
Method: (§1) The sequential administration study was conducted as depicted in FIG. 4. A baseline visual function of retinal ganglion cells (RGCs) was obtained using pattern electroretinography (PERG) to record the electrical activity of RGCs, Optical Coherence Tomography (OCT) to evaluate the thickness of the Retinal Nerve Fiber Layer (RNFL), and Heidelberg Retina Topography (HRT) to evaluate subtle changes in the optic nerve caused by trauma. At day zero, US-TON (SI-TON) was induced by a microtip probe sonifier placed on the supraorbital ridge directly above the entrance of the optic nerve into the bony canal, as described in Example 2.
(§2) On the first day, six mice were administered either a bolus subcutaneous injection of 3 mg/kg ([…]) Etanercept (Enbrel™, Groups 1 and 2), 10 mg/kg (300 μg per 30 g mouse) D-Arg-2′6′-Dmt-Lys-Phe-NH2(MTP-131, Groups 3 and 4), or PBS (Groups 5 and 6), followed by daily injections of the drug formulation for a period of 3 days. On the sixth day, Groups 1 and 2 were administered a bolus subcutaneous injection of 10 mg/kg (300 μg per 30 g mouse) D-Arg-2′6′-Dmt-Lys-Phe-NH2; Groups 3 and 4 were administered a bolus subcutaneous injection of 3 mg/kg ([…]) Etanercept; and Groups 5 and 6 received PBS, followed by daily injections of the drug formulation for three days. […]

[2] = test system: retinal ganglion cells (RGCs); test: Sequential administration study, PERG after US-TON (SI-TON), Example 4; type: in vivo, mice; conditions: 5 mg/kg 4-AP added to any formulation from two weeks post-injury, two and four weeks post treatment
Method: as §1, §2

[3] = test system: retinal ganglion cells (RGCs); test: Safety and efficacy of acute intravitreal administration, PERG before and after SI-TON, Example 5; type: in vivo, C57BL/6 J mice
Method: To determine the safety of acute intravitreal administration of aromatic-cationic peptides in vivo, SI-TON was induced in 3-month-old C57BL/6 J mice with a Branson Digital Sonifier 450 (Branson) by a 3 mm microtip probe (Branson) in an acoustic soundproof enclosure chamber, as described in Example 2. Fifteen minutes following the induction of TON, a group of ten mice were administered 1.3 μL of 100 nM D-Arg-2′6′-Dmt-Lys-Phe-NH2 (MTP-131) intravitreally in the left eye (OS, treated). A different subset of mice was administered control PBS solution intravitreally in the left eye (OS, treated) followed by subcutaneous injection with 5 mg/kg D-Arg-2′6′-Dmt-Lys-Phe-NH2 fifteen minutes post-injury. A baseline recording of the mice visual function was recorded using electrophysiological recording of RGCs through PERG prior to SI-TON induction and the functional visual outcome of the mice was tested again 4 weeks post-injury.

[4] = test system: retinal ganglion cells (RGC); test: RGC survival in optic nerve crush-induced TON (ONC-TON) model, Example 2; type: in vivo, rat; conditions: two weeks following injury, early use, peptide 2 mg/kg SQ for 7 days
Description: ONC-TON is induced by exposing the optic nerve of an adult rat and creating a small opening in the meninges of the nerve, as described in Solomon, A. et al., J. of Neurosci. Methods (1996) 70: 21-25, (incorporated herein by reference). The opening is created about 2-3 mm behind the eye globe. A glass dissector is introduced through the opening and is used to cut all the axons through the whole width of the nerve. Complete […] of the optic nerve axons is achieved, while retaining the continuity of the meninges and avoiding damage to the nerve's vascular supply. Transection can be confirmed by transillumination showing a complete gap in the continuity of the nerve axons, and by both morphological and electrophysiological criteria. The opening created in the ‘meningeal tube’ can be used to inject substances that may be of benefit in recovery, rescue and/or regeneration of the injured axons. […]
(§3) A baseline recording of visual function by pattern electroretinogram (PERG) and imaging of the optic disc was performed prior to inducing SI-TON or ONC-TON. […] Euthanized animals were evaluated for RGC dropout by flat mount. […]
To test if a combinatorial strategy results in improved visual outcomes, a therapeutic agent, such as a TNF-alpha inhibitor (e.g., etanercept), D-Arg-2′6′-Dmt-Lys-Phe-NH2, or a combination of these pharmaceutical agents was assessed. […]

[5] = test system: retinal ganglion cells (RGC); test: RGC survival in sonication-induced TON (SI-TON) model, Example 2; type: in vivo, mice; conditions: two weeks following injury, early use, peptide 2 mg/kg SQ for 7 days
Description: SI-TON is induced by a microtip probe sonifier placed on the supraorbital ridge directly above the entrance of the optic nerve into the bony canal, as described in Tao, W. et al., Scientific Reports (2017) 7: 11779 (incorporated herein by reference). An ultrasonic pulse is then delivered to the optic nerve. After injury, the number of RGCs in the retina as well as visual function measured by PERG steadily decrease over a two-week period. […] The SI-TON model is capable of delivering a non-contact concussive injury to the optic nerve and induce TON in mice.
Two models for TON were utilized in this example: a novel sonication-induced TON (SI-TON) that closely recapitulates the clinical manifestations of indirect TON, and optic nerve crush-induced TON (ONC-TON) which reflects a more severe form of TON often resulting in axotomized nerve fibers and ruptured nervous vasculature. […]
as §3
To test if a combinatorial strategy results in improved visual outcomes, a therapeutic agent, such as a TNF-alpha inhibitor (e.g., etanercept), D-Arg-2′6′-Dmt-Lys-Phe-NH2, or a combination of these pharmaceutical agents was assessed. […] Euthanized animals were evaluated for RGC dropout by flat mount. […]

[6] = test system: subjects suspected of having or diagnosed as having TON; test: Treatment of subjects with TON, Example 1 (predicted); type: in vivo; conditions: for effect in combination with one or more additional therapeutic agents: compared with peptide or additional agent alone, expected; for severity of symptoms associated with TON: daily 1 mg/kg body weight, predicted
Method: Subjects suspected of having or diagnosed as having TON receive daily administrations of 1 mg/kg body weight of aromatic-cationic peptide, such as 2′6′-Dmt-D-Arg-Phe-Lys-NH2, Phe-D-Arg-Phe-Lys-NH2, or D-Arg-2′6′-Dmt-Lys-Phe-NH2, or a pharmaceutically acceptable salt thereof (such as an mono, bis, or tri-acetate salt, a tartrate salt, a fumarate salt, a mono, bis, or tri-HCl salt, a mono, bis, or tri-tosylate salt, or a mono, bis, or tri-trifluoroacetate salt) alone or in combination with one or more additional therapeutic agents for the treatment or prevention of TON. Peptides and/or additional therapeutic agents are administered orally, topically, systemically, intravenously, subcutaneously, intravitreally, intraperitoneally, or intramuscularly according to methods known in the art. Subjects will be evaluated weekly for the presence and/or severity of signs and symptoms associated with TON including, but not limited to, e.g., vision loss, blurred vision, RGC damage, scotoma, decreased color sensation, uveitis, optic neuritis, eye pain, optic nerve avulsion, optic nerve transection, optic nerve sheath hemorrhage, orbital hemorrhage, choroidal rupture, and commotio retinae. Treatments are maintained until such a time as one or more signs or symptoms of TON are ameliorated or eliminated.

[7] = test system: several mammalian cell types; conditions: energy-independent manner; cited from earlier work

Nc1ccncc1 [4-AP, 4-aminopyridine]
RNFL and IPL thickness by OCT [1]: did not significantly improve
RGC electrical activity measured by PERG [2]: significantly increased RGC electrical activity

Cc1cc(O)cc(C)c1C[C@H](NC(=O)[C@H](N)CCCNC(=N)N)C(=O)N[C@@H](CCCCN)C(=O)N[C@@H](Cc1ccccc1)C(N)=O [D-Arg-2′6′-Dmt-Lys-Phe-NH2] (H-[dR][Dmt]KF-NH2)
safety of direct application to the eye ([3]; acute intravitreal injection, 1.3 μL of 100 nM): did not show evidence of toxicity
baseline electrophysiological recording of RGCs (PERG), treated vs control ([3]; uninjured baseline, left eye): substantially similar

etanercept
percent RGC survival [4]: 48.94% and 48.94±1.94%
percent RGC survival [5]: 97.08% and 97.08±2.21%

2′6′-Dmt-D-Arg-Phe-Lys-NH2
effect in combination with one or more additional therapeutic agents [6]: synergistic effects
severity of symptoms associated with TON [6]: reduced severity or elimination of one or more symptoms associated with TON
penetration of the plasma membrane [7]: readily penetrates the plasma membrane

F[dR]FK-NH2
effect in combination with one or more additional therapeutic agents [6]: synergistic effects
severity of symptoms associated with TON [6]: reduced severity or elimination of one or more symptoms associated with TON

From US20210330735A1, “COMPOSITIONS AND METHODS FOR THE TREATMENT OF TRAUMATIC OPTIC NEUROPATHY” (Stealth BioTherapeutics Corp, priority 2018, published 2021)
